Patent US20230141965A1, “TREATMENT OF INFECTIOUS DISEASES” (Durect Corporation, priority 2020, published 2023)

Columns and labels:
C57BL/6J mice = experiment: Acute organ injury in mice challenged with lipopolysaccharide (LPS); assay type: in vivo; conditions: for health of kidney, lung, and liver tissues (sections stained with hematoxylin and eosin, light microscope): C57BL/6J mice, 50 mg/kg i.p. two hours before i.v. LPS 5 mg/kg, tissues collected at day 3, FIG. 1
Method: C57BL/6J mice, 21 week old, received an i.p. injection of 25HC3S sodium salt (50 mg/kg) or vehicle. Two hours later, mice were challenged with an intravenous injection of lipopolysaccharide (LPS) at 5 mg/kg. For vehicle-treated mice, the tissues, liver, lung, and kidney, were collected right before when animals met all criteria to be sacrificed. For mice treated with 25HC3S sodium salt, tissues were collected at the day 3, when 80% of vehicle-treated mice died. The tissue sections were stained with hematoxylin and eosin, examined under light microscope with magnification x 100.

mice = experiment: Acute organ injury in mice given acetaminophen (APAP) injection; assay type: in vivo; conditions: for kidney, lung, and liver tissues: mice, 25 mg/kg with APAP injection (600 mg/kg APAP for 24hr), FIG. 2
Method: Normal: normal mice without treatment; Control: mice with 10% glucose and acetaminophen (APAP) injection (600 mg/kg APAP for 24hr); PG: mice with vehicle and APAP injection (600 mg/kg APAP for 24hr); PG+25HC3S: mice with 25HC3S (25 mg/kg) and APAP injection.

Structure (SMILES) | health of kidney, lung, and liver tissues (sections stained with hematoxylin and eosin, light microscope) (C57BL/6J mice) | kidney, lung, and liver tissues (mice) | health of kidney, lung, and liver tissues (sections stained with hematoxylin and eosin, light microscope) (C57BL/6J mice; listed as 25HCS) | protection of mice from lipopolysaccharide (LPS) (C57BL/6J mice; FIG. 1 legend, LPS 5 mg/kg i.v.) | protection of mice from acetaminophen (mice; FIG. 2 legend, 600 mg/kg APAP)
C[C@H](CCCC(C)(C)O)[C@H]1CC[C@H]2[C@@H]3CC=C4CC(OS(=O)(=O)[O-])CC[C@]4(C)[C@H]3CC[C@]12C.[Na+] (stereo partly drawn) [25HC3S sodium salt, 5-cholesten-3, 25-diol, 3-sulfate] | improved the health of kidney, lung, and liver tissues | improved kidney, lung, and liver tissues |  |  | 
C[C@H](CCCC(C)(C)O)[C@H]1CC[C@H]2[C@@H]3CC=C4C[C@@H](OS(=O)(=O)[O-])CC[C@]4(C)[C@H]3CC[C@]12C.[Na+] [25HC3S, 5-cholesten-3, 25-diol, 3-sulfate] |  | improved kidney, lung, and liver tissues | improved kidney, lung, and liver tissues | protected mice from lipopolysaccharide (LPS) | protected mice from acetaminophen
